For 18 compounds, Ki and Kb results are on record in ChEMBL document CHEMBL1126953, “Quinoxaline N-oxide containing potent angiotensin II receptor antagonists: synthesis, biological properties, and structure-activity relationships” (J Med Chem, 1993).

For experiment [1], the target named is T1, Angiotensin II receptor (AT-1) type-1 (Rattus norvegicus, UniProt P29089+P25095).
T1 sequence (P29089 whole entry): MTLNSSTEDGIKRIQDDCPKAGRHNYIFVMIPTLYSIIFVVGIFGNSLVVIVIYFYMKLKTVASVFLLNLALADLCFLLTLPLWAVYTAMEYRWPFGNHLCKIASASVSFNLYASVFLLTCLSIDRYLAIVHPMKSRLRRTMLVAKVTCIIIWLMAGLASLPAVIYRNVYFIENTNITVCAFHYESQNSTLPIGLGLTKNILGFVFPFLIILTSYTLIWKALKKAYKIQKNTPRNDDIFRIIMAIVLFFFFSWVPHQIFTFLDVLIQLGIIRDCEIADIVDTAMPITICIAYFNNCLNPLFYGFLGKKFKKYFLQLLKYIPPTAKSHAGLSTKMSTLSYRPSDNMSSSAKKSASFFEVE
T1 sequence (P25095 whole entry): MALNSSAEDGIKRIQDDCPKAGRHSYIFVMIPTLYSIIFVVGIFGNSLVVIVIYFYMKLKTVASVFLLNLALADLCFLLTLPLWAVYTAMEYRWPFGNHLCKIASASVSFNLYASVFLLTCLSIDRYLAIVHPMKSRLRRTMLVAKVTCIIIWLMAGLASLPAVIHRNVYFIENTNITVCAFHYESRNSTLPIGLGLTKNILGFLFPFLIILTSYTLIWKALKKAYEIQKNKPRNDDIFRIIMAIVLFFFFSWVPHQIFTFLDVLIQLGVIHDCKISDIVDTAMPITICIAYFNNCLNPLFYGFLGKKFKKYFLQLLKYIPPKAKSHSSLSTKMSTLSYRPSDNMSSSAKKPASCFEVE
Description: Binding affinity for Angiotensin II receptor, type 1 in rat adrenal cortical membranes using [125I]Sar1, Ile8-angiotensin II. Type of experiment: cell membranes.

Experiment [2] has as its target Angiotensin II receptor type 1 (Oryctolagus cuniculus) (UniProt P34976). Description: Antagonism of angiotensin II induced contraction of isolated rabbit aorta.
For experiment [3], the target named is T1, Angiotensin II receptor (AT-1) type-1. Description: Binding affinity of compound in presence of bovine serum albumin (BSA) at 0.01% against rat adrenal Angiotensin II receptor, type 1. Type of experiment: cell-free.
The target is the same in experiment [4]. Description: Binding affinity of compound in presence of bovine serum albumin (BSA) at 0.22% against rat adrenal Angiotensin II receptor, type 1. Type of experiment: cell-free.
The target is the same in experiment [5]. Description: Binding affinity of compound in presence of bovine serum albumin (BSA) at 0% against rat adrenal Angiotensin II receptor, type 1. Type of experiment: cell-free.
Experiment [6] has the same target. Description: Binding affinity of compound in presence of bovine serum albumin (BSA) at 0% against rat Angiotensin II receptor, type 1. Format: cell-free.
Experiment [7] has the same target. Description: Binding affinity of compound in presence of bovine serum albumin (BSA) at 0.01% against rat Angiotensin II receptor, type 1. Format: cell-free.

Angiotensin II receptor type 1 (Oryctolagus cuniculus), sequence (P34976 whole entry, looked up): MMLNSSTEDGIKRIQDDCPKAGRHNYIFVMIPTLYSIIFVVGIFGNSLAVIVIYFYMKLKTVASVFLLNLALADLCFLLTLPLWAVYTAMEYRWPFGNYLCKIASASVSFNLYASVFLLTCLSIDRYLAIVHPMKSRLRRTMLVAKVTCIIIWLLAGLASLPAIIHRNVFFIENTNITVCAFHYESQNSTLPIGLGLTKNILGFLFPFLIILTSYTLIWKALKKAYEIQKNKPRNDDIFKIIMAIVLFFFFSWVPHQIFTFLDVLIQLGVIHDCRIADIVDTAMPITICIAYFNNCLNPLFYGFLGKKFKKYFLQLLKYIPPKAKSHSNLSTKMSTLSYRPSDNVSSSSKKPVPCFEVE

Regarding `CCCCc1c(Oc2ccc(-c3ccccc3-c3nn[nH]n3)cc2)nc2c(C(=O)O)c(OCCC)ccc2[n+]1[O-]`, the Ki in experiment [1] is listed as 68 nM. This compound displayed a Kb in experiment [2] of 0.19 nM.

The compound `CCCCc1nc2ccccc2[n+]([O-])c1Oc1ccc(-c2ccccc2-c2nn[nH]n2)cc1` came in with a Ki in experiment [1] of 4.5 nM. This compound returned a Kb in experiment [2] of 0.44 nM.

For `CCCCc1c(Oc2ccc(-c3ccccc3-c3nn[nH]n3)cc2)nc2ccccc2[n+]1[O-]`, the values for the inhibition constant (Ki) in experiment [3], in experiment [4] and in experiment [1] were 71 nM, 580 nM and 71 nM, respectively. Further, the Kb in experiment [2] amounted to 230 nM.

Take `CCCCc1c(Oc2ccc(-c3ccccc3-c3nn[nH]n3)cc2)nc2c(C(=O)O)c(OCC(F)(F)F)ccc2[n+]1[O-]`: the Ki in experiment [1] turned out to be 22 nM. Further, the Kb in experiment [2] turned out to be 2 nM.

As for `CCCc1nc2cccc(C(=O)O)c2nc1Oc1ccc(-c2ccccc2-c2nn[nH]n2)cc1`, the Ki in experiment [1] was 190 nM. In addition, the Kb in experiment [2] came out at 13 nM.

Take `CCCCc1nc2ccccc2nc1Oc1ccc(-c2ccccc2-c2nn[nH]n2)cc1`: the Ki in experiment [4] is 2200 nM; in experiment [1] it was 137 nM. Moreover, the Kb in experiment [2] worked out at 290 nM.

The compound `CCCCc1c(Oc2ccc(-c3ccccc3-c3nn[nH]n3)cc2)nc2c(C(=O)O)c(F)ccc2[n+]1[O-]` displayed a Ki in experiment [1] of 9 nM. In addition, the Kb in experiment [2] turned out to be 0.58 nM.

For `CCCCc1nc2ccc(F)c(C(=O)O)c2nc1Oc1ccc(-c2ccccc2-c2nn[nH]n2)cc1`, the Ki in experiment [1] amounted to 21 nM. In experiment [2], this compound yielded a Kb of 0.97 nM.

Regarding `CCCCc1c(Oc2ccc(-c3ccccc3-c3nn[nH]n3)cc2)nc2c(C(=O)O)c(OCC)ccc2[n+]1[O-]`, the inhibitory constant (Ki) in experiment [5] amounted to 0.4 nM; in experiment [3] it was 1.3 nM; in experiment [1], 1.3 nM. In experiment [2], this compound had a Kb of 0.026 nM.

As to `CCCCc1c(Oc2ccc(-c3ccccc3-c3nn[nH]n3)cc2)nc2c(C(=O)O)c(N)ccc2[n+]1[O-]`, the Ki in experiment [1] is recorded as 7.4 nM. Further, in experiment [2], the Kb came to 0.25 nM.

Consider `Cc1c(Oc2ccc(-c3ccccc3-c3nn[nH]n3)cc2)nc2ccccc2[n+]1[O-]`, for which the figures for the Ki in experiment [3], in experiment [4] and in experiment [1] were 550 nM, 24400 nM and 550 nM, respectively. Moreover, the Kb in experiment [2] was determined as 480 nM.

In experiment [1], `CCCCc1c(Oc2ccc(-c3ccccc3-c3nn[nH]n3)cc2)nc2c(C(=O)O)c(OC)ccc2[n+]1[O-]` had a Ki of 17 nM. The Kb in experiment [2] came out at 0.13 nM.

As for `CCCCc1c(Oc2ccc(-c3ccccc3-c3nn[nH]n3)cc2)nc2c(C(=O)O)c(OC(C)C)ccc2[n+]1[O-]`, in experiment [1], the Ki is on record as 28 nM.

`Cc1nc2ccccc2nc1Oc1ccc(-c2ccccc2-c2nn[nH]n2)cc1` had an antagonist equilibrium constant (Kb) in experiment [2] of 2300 nM.

Compound `CCCCc1c(Oc2ccc(-c3ccccc3-c3nn[nH]n3)cc2)nc2c(C(=O)O)cccc2[n+]1[O-]` yielded a Kb in experiment [2] of 0.5 nM.

The compound `CCCCOc1ccc2c(nc(Oc3ccc(-c4ccccc4-c4nn[nH]n4)cc3)c(CCCC)[n+]2[O-])c1C(=O)O` had an inhibition constant (Ki) in experiment [1] of 50 nM. The compound further had a Kb in experiment [2] of 0.27 nM.

For the compound `CCCCc1nc2ccc(OCC)c(C(=O)O)c2nc1Oc1ccc(-c2ccccc2-c2nn[nH]n2)cc1`, the inhibition constant Ki in experiment [1] was determined as 44 nM. In experiment [2], this compound had a Kb of 0.12 nM.

As to `CCCCc1nc2cccc(C(=O)O)c2nc1Oc1ccc(-c2ccccc2-c2nn[nH]n2)cc1`, the Ki in experiment [6] is reported as 5.5 nM; in experiment [7], 46 nM; in experiment [1], 46 nM. The compound also had a Kb in experiment [2] of 2.1 nM.

What is called Ki is a measure of affinity in units of concentration, obtained from inhibition or displacement. By Kb is commonly meant the affinity of an antagonist, worked out from how it opposes an agonist. Lower therefore signals a more potent antagonist.
